# Results published in patent publication US20250213527A1, “FORMULATIONS OF PSILOCYBIN ANALOGS AND METHODS OF USE” (priority 2021, published 2025).
# “Also recorded” adds a separate entry of the source.
# Key:
# [1] = Plasma pharmacokinetics and bioavailability in rats, oral gavage and intravenous (bolus); conditions: rat plasma, Group 1, IV, psilocin + psilocin-d10 1 + 1 mg/kg; label = analyte; IAD = immediately after dosing
# [2] = Pharmacokinetics in male beagle dogs after oral administration by powder in capsule (PIC) or orally disintegrating tablet (ODT); conditions: dog, plasma, 5 mg
# [3] = Psilocin-d10 pharmacokinetics in female beagle dogs, oral gavage and intravenous (bolus); conditions: for AUC(0-inf) / AUC(0-t) / C0 / clearance / Cmax / Tmax / Vd / half-life / bioavailability: female, beagle, dog, plasma; for AUC(0-inf): AUC0-inf; for C0: C0, female dog plasma
# [4] = Stability on standing of amorphous form from DSC melt/crash cooling (XRPD); assay type: physicochemical; conditions: amorphous free base from melt/crash cooling (>185 °C/30 °C)
# [5] = female dog plasma, single IV bolus 0.20 mg/kg, Mean (N=3)
# [6] = female dog plasma, single IV bolus 0.20 mg/kg, Median (N=3)
# [7] = female dog plasma, single IV bolus 0.20 mg/kg, animal 60F
# [8] = female dog plasma, single IV bolus 0.20 mg/kg, animal 61F
# [9] = female dog plasma, single IV bolus 0.20 mg/kg, animal 723F
# [10] = female dog plasma, single oral gavage 1.00 mg/kg, Mean (N=3)
# [11] = female dog plasma, single oral gavage 1.00 mg/kg, Median (N=3)
# [12] = female dog plasma, single oral gavage 1.00 mg/kg, animal 60F
# [13] = female dog plasma, single oral gavage 1.00 mg/kg, animal 61F
# [14] = female dog plasma, single oral gavage 1.00 mg/kg, animal 723F
# [15] = iv, 0.2 mg/kg, female dog plasma, single IV bolus 0.20 mg/kg, Mean (N=3)
# [16] = iv, 0.2 mg/kg, female dog plasma, single IV bolus 0.20 mg/kg, animal 61F
# [17] = po, 1 mg/kg, female dog plasma, single oral gavage 1.00 mg/kg, Mean (N=3)
# [18] = po, 1 mg/kg, female dog plasma, single oral gavage 1.00 mg/kg, Median (N=3)
# [19] = po, 1 mg/kg, female dog plasma, single oral gavage 1.00 mg/kg, animal 60F
# [20] = po, 1 mg/kg, female dog plasma, single oral gavage 1.00 mg/kg, animal 61F
# [21] = po, 1 mg/kg, female dog plasma, single oral gavage 1.00 mg/kg, animal 723F
smiles,measurement,setting,value
"[2H]C([2H])([2H])N(C([2H])([2H])[2H])C([2H])([2H])C([2H])([2H])c1c[nH]c2cccc(O)c12 [Compound I-3, 3-(2-(bis(methyl-d3)amino)ethyl-1,1,2,2-d4)-1H-indol-4-ol]",Tmax,[1],IAD
same,Tmax,[2],0.5 h
same,Tmax,[2]; oral,1 h
same,time of last detectable plasma level,"[3]; dogs, oral administration",8 h
same,time of peak plasma levels,"[3]; dogs, oral administration",0.5 h
same,DN AUC0-inf,[3]; [5],448 (h*ng/mL)/(mg/kg)
same,DN Cmax,[3]; [5],229 (ng/mL)/(mg/kg)
same,DN AUC0-inf,[3]; [6],479 (h*ng/mL)/(mg/kg)
same,DN Cmax,[3]; [6],230 (ng/mL)/(mg/kg)
same,DN AUC0-inf,[3]; [7],366 (h*ng/mL)/(mg/kg)
same,DN Cmax,[3]; [7],230 (ng/mL)/(mg/kg)
same,DN AUC0-inf,[3]; [8],479 (h*ng/mL)/(mg/kg)
same,DN Cmax,[3]; [8],220 (ng/mL)/(mg/kg)
same,DN AUC0-inf,[3]; [9],500 (h*ng/mL)/(mg/kg)
same,DN Cmax,[3]; [9],239 (ng/mL)/(mg/kg)
same,DN AUC0-inf,[3]; [10],405 (h*ng/mL)/(mg/kg)
same,DN Cmax,[3]; [10],146 (ng/mL)/(mg/kg)
same,DN AUC0-inf,[3]; [11],414 (h*ng/mL)/(mg/kg)
same,DN Cmax,[3]; [11],132 (ng/mL)/(mg/kg)
same,DN AUC0-inf,[3]; [12],374 (h*ng/mL)/(mg/kg)
same,DN Cmax,[3]; [12],132 (ng/mL)/(mg/kg)
same,DN AUC0-inf,[3]; [13],414 (h*ng/mL)/(mg/kg)
same,DN Cmax,[3]; [13],179 (ng/mL)/(mg/kg)
same,DN AUC0-inf,[3]; [14],426 (h*ng/mL)/(mg/kg)
same,DN Cmax,[3]; [14],126 (ng/mL)/(mg/kg)
same,AUC(0-inf),[3]; [15],89.6 ng·h/mL
same,AUC(0-inf),"[3]; iv, 0.2 mg/kg, female dog plasma, single IV bolus 0.20 mg/kg, Median (N=3)",95.8 ng·h/mL
same,AUC(0-inf),"[3]; iv, 0.2 mg/kg, female dog plasma, single IV bolus 0.20 mg/kg, animal 60F",73.3 ng·h/mL
same,AUC(0-inf),[3]; [16],95.8 ng·h/mL
same,AUC(0-inf),"[3]; iv, 0.2 mg/kg, female dog plasma, single IV bolus 0.20 mg/kg, animal 723F",99.9 ng·h/mL
same,AUC(0-t),"[3]; iv, 0.2 mg/kg, AUC0-t, female dog plasma, single IV bolus 0.20 mg/kg, Mean (N=3)",77.8 ng·h/mL
same,AUC(0-t),"[3]; iv, 0.2 mg/kg, AUC0-t, female dog plasma, single IV bolus 0.20 mg/kg, Median (N=3)",80.7 ng·h/mL
same,AUC(0-t),"[3]; iv, 0.2 mg/kg, AUC0-t, female dog plasma, single IV bolus 0.20 mg/kg, animal 60F",67 ng·h/mL
same,AUC(0-t),"[3]; iv, 0.2 mg/kg, AUC0-t, female dog plasma, single IV bolus 0.20 mg/kg, animal 61F",80.7 ng·h/mL
same,AUC(0-t),"[3]; iv, 0.2 mg/kg, AUC0-t, female dog plasma, single IV bolus 0.20 mg/kg, animal 723F",85.8 ng·h/mL
same,C0,"[3]; iv, 0.2 mg/kg, single IV bolus 0.20 mg/kg, Mean (N=3)",57.3 ng/mL
same,C0,"[3]; iv, 0.2 mg/kg, single IV bolus 0.20 mg/kg, Median (N=3)",62 ng/mL
same,C0,"[3]; iv, 0.2 mg/kg, single IV bolus 0.20 mg/kg, animal 60F",69.5 ng/mL
same,C0,"[3]; iv, 0.2 mg/kg, single IV bolus 0.20 mg/kg, animal 61F",40.5 ng/mL
same,C0,"[3]; iv, 0.2 mg/kg, single IV bolus 0.20 mg/kg, animal 723F",62 ng/mL
same,clearance,"[3]; iv, 0.2 mg/kg, CL, female dog plasma, single IV bolus 0.20 mg/kg, Mean (N=3)",37.8 mL/min/kg
same,clearance,"[3]; iv, 0.2 mg/kg, CL, female dog plasma, single IV bolus 0.20 mg/kg, animal 60F",45.5 mL/min/kg
same,clearance,"[3]; iv, 0.2 mg/kg, CL, female dog plasma, single IV bolus 0.20 mg/kg, animal 723F",33.3 mL/min/kg
same,clearance,"[3]; iv, 0.2 mg/kg, Clearance (CL), dogs",37.8 mL/min/kg
same,Cmax,"[3]; iv, 0.2 mg/kg, Cmax, female dog plasma, single IV bolus 0.20 mg/kg, Mean (N=3)",45.8 ng/mL
same,Cmax,"[3]; iv, 0.2 mg/kg, Cmax, female dog plasma, single IV bolus 0.20 mg/kg, Median (N=3)",45.9 ng/mL
same,Cmax,"[3]; iv, 0.2 mg/kg, Cmax, female dog plasma, single IV bolus 0.20 mg/kg, animal 60F",45.9 ng/mL
same,Cmax,"[3]; iv, 0.2 mg/kg, Cmax, female dog plasma, single IV bolus 0.20 mg/kg, animal 61F",43.9 ng/mL
same,Cmax,"[3]; iv, 0.2 mg/kg, Cmax, female dog plasma, single IV bolus 0.20 mg/kg, animal 723F",47.7 ng/mL
same,Tmax,[3]; [15],0.333 h
same,Tmax,[3]; [16],0.5 h
same,Vd,"[3]; iv, 0.2 mg/kg, Vss, female dog plasma, single IV bolus 0.20 mg/kg, Mean (N=3)",4.01 L/kg
same,Vd,"[3]; iv, 0.2 mg/kg, Vss, female dog plasma, single IV bolus 0.20 mg/kg, Median (N=3)",3.96 L/kg
same,Vd,"[3]; iv, 0.2 mg/kg, Vss, female dog plasma, single IV bolus 0.20 mg/kg, animal 60F",3.96 L/kg
same,Vd,"[3]; iv, 0.2 mg/kg, Vss, female dog plasma, single IV bolus 0.20 mg/kg, animal 61F",4.28 L/kg
same,Vd,"[3]; iv, 0.2 mg/kg, Vss, female dog plasma, single IV bolus 0.20 mg/kg, animal 723F",3.79 L/kg
same,half-life,"[3]; iv, 0.2 mg/kg, elimination half-life, dogs",1.35 h
same,AUC(0-t),"[3]; iv, 0.2 mg/kg, mean AUC0-t, female dog plasma, single intravenous (bolus) dose",77.8 ng·h/mL
same,Cmax,"[3]; iv, 0.2 mg/kg, mean Cmax, female dog plasma, single intravenous (bolus) dose",45.8 ng/mL
same,half-life,"[3]; iv, 0.2 mg/kg, t1/2, female dog plasma, single IV bolus 0.20 mg/kg, Mean (N=3)",1.37 h
same,half-life,"[3]; iv, 0.2 mg/kg, t1/2, female dog plasma, single IV bolus 0.20 mg/kg, Median (N=3)",1.41 h
same,half-life,"[3]; iv, 0.2 mg/kg, t1/2, female dog plasma, single IV bolus 0.20 mg/kg, animal 60F",1.16 h
same,half-life,"[3]; iv, 0.2 mg/kg, t1/2, female dog plasma, single IV bolus 0.20 mg/kg, animal 61F",1.55 h
same,half-life,"[3]; iv, 0.2 mg/kg, t1/2, female dog plasma, single IV bolus 0.20 mg/kg, animal 723F",1.41 h
same,Vd,"[3]; iv, 0.2 mg/kg, volume of distribution at steady state (VSS), dogs, intravenous",4.01 L/kg
same,AUC(0-inf),[3]; [17],405 ng·h/mL
same,AUC(0-inf),[3]; [18],414 ng·h/mL
same,AUC(0-inf),[3]; [19],374 ng·h/mL
same,AUC(0-inf),[3]; [20],414 ng·h/mL
same,AUC(0-inf),[3]; [21],426 ng·h/mL
same,AUC(0-t),"[3]; po, 1 mg/kg, AUC0-t, female dog plasma, single oral gavage 1.00 mg/kg, Mean (N=3)",387 ng·h/mL
same,AUC(0-t),"[3]; po, 1 mg/kg, AUC0-t, female dog plasma, single oral gavage 1.00 mg/kg, Median (N=3)",399 ng·h/mL
same,AUC(0-t),"[3]; po, 1 mg/kg, AUC0-t, female dog plasma, single oral gavage 1.00 mg/kg, animal 61F",399 ng·h/mL
same,AUC(0-t),"[3]; po, 1 mg/kg, AUC0-t, female dog plasma, single oral gavage 1.00 mg/kg, animal 723F",404 ng·h/mL
same,Cmax,"[3]; po, 1 mg/kg, Cmax, female dog plasma, single oral gavage 1.00 mg/kg, Mean (N=3)",146 ng/mL
same,Cmax,"[3]; po, 1 mg/kg, Cmax, female dog plasma, single oral gavage 1.00 mg/kg, Median (N=3)",132 ng/mL
same,Cmax,"[3]; po, 1 mg/kg, Cmax, female dog plasma, single oral gavage 1.00 mg/kg, animal 60F",132 ng/mL
same,Cmax,"[3]; po, 1 mg/kg, Cmax, female dog plasma, single oral gavage 1.00 mg/kg, animal 61F",179 ng/mL
same,Cmax,"[3]; po, 1 mg/kg, Cmax, female dog plasma, single oral gavage 1.00 mg/kg, animal 723F",126 ng/mL
same,bioavailability,"[3]; po, 1 mg/kg, F (Bioavailability), female dog plasma, single oral gavage 1.00 mg/kg, Mean (N=3)",91.3%
same,bioavailability,"[3]; po, 1 mg/kg, F (Bioavailability), female dog plasma, single oral gavage 1.00 mg/kg, Median (N=3)",186%
same,bioavailability,"[3]; po, 1 mg/kg, F (Bioavailability), female dog plasma, single oral gavage 1.00 mg/kg, animal 60F",102%
same,bioavailability,"[3]; po, 1 mg/kg, F (Bioavailability), female dog plasma, single oral gavage 1.00 mg/kg, animal 61F",86.5%
same,bioavailability,"[3]; po, 1 mg/kg, F (Bioavailability), female dog plasma, single oral gavage 1.00 mg/kg, animal 723F",85.2%
same,Tmax,[3]; [17],0.5 h
same,Tmax,[3]; [18],0.5 h
same,Tmax,[3]; [19],0.5 h
same,Tmax,[3]; [20],0.5 h
same,Tmax,[3]; [21],0.5 h
same,half-life,"[3]; po, 1 mg/kg, elimination half-life, dogs",1.77 h
same,AUC(0-t),"[3]; po, 1 mg/kg, mean AUC0-t, female dog plasma, single oral (gavage) dose",387 ng·h/mL
same,Cmax,"[3]; po, 1 mg/kg, mean Cmax, female dog plasma, single oral (gavage) dose",146 ng/mL
same,bioavailability,"[3]; po, 1 mg/kg, mean oral bioavailability (%F), dogs, oral 1 mg/kg",91.3%
same,half-life,"[3]; po, 1 mg/kg, t1/2, female dog plasma, single oral gavage 1.00 mg/kg, Mean (N=3)",1.77 h
same,half-life,"[3]; po, 1 mg/kg, t1/2, female dog plasma, single oral gavage 1.00 mg/kg, Median (N=3)",1.8 h
same,half-life,"[3]; po, 1 mg/kg, t1/2, female dog plasma, single oral gavage 1.00 mg/kg, animal 60F",1.82 h
same,half-life,"[3]; po, 1 mg/kg, t1/2, female dog plasma, single oral gavage 1.00 mg/kg, animal 61F",1.69 h
same,half-life,"[3]; po, 1 mg/kg, t1/2, female dog plasma, single oral gavage 1.00 mg/kg, animal 723F",1.8 h
same,stability of amorphous form on standing,[4],crystallized overnight to crystal polymorph pattern 2; also recorded: unstable upon standing
